This note sets out measurements from US20110209253A1, “Method for Improving Plant Health” (BASF SE, priority 2008, published 2011).

Where two headings read alike, the source gives them in different places.

The assay concerns Wheat plants (Triticum aestivum cv. Monopol). The experiment in a line: Growth-promoting effect on wheat plants after foliar treatment (Example 3). The format is in vivo. To be noted: after 18 days; for activity at 7.5 g/ha / activity at 15 g/ha: Triticum aestivum, 432 h. As for the experimental part:
Wheat plants (Triticum aestivum cv. Monopol) were grown in soil with ten plants per pot (13 cm diameter) under greenhouse conditions. Plants at the 2nd leaf stage were sprayed with aqueous solutions of formulated compounds: • Compound 2: 5-Methyl-2-trifluoromethyl-furan-3-carboxylic acid (1-methylcarbamoyl-2-phenyl-ethyl)-amide • Compound 3: 1-Methyl-3-trifluoromethyl-1H-pyrazole-4-carboxylic acid (1-methylcarbamoyl-2-phenyl-ethyl)-amide • Compound 4: Methyl-carbamic acid-2-methylcarbamoyl-2-[(1-methyl-3-trifluoromethyl-1H-pyrazole-4-carbonyl)-amino]-ethyl ester • Compound 5: Methyl-carbamic acid-2-methylcarbamoyl-2-[(1-methyl-3-trifluoromethyl-1H-pyrazole-4-carbonyl)-amino]-1-(tetrahydro-pyran-4-yl)-ethyl ester • Compound 6: Methyl-carbamic acid 1,1-dimethyl-2-methylcarbamoyl-2-[(1-methyl-3-trifluoromethyl-1H-pyrazole-4-carbonyl)-amino]-ethyl ester • Compound 7: 1-Methyl-3-trifluoromethyl-1H-pyrazole-4-carboxylic acid (2-hydroxy-3-methoxy-2-methoxymethyl-1-methylcarbamoyl-propyl)-amide • Compound 8: Methyl-carbamic acid 1,1-bis-methoxymethyl-2-methylcarbamoyl-2-[(1-methyl-3-trifluoromethyl-1H-pyrazole-4-carbonyl)-amino]-ethyl ester • Compound 9: Methyl-carbamic acid (E)-1-methyl-1-{methylcarbamoyl-[(1-methyl-3-trifluoromethyl-1H-pyrazole-4-carbonyl)-amino]-methyl}-but-2-enyl ester The compounds were applied at two different dose rates (15 and 7.5 g ai/ha) and the spray volume was 750 I/ha. Six replicate pots with ten plants each were used per treatment. After 18 days plants were harvested and growth parameters were determined. The recorded parameters were fresh weight (FW) and dry weight (DW). Mean values of results, standard deviation (SD) and percentage to control were calculated.

[1] abbreviates: 7.5 g/ha foliar spray, read-out: Shoot DW % of control.
Setting [2] is: 7.5 g/ha foliar spray, read-out: Shoot FW % of control.
Where [3] appears, read: 15 g/ha foliar spray, read-out: Shoot DW % of control.
Setting [4] is: 15 g/ha foliar spray, read-out: Shoot FW % of control.

For `CNC(=O)C(Cc1ccccc1)NC(=O)c1cc(C)oc1C(F)(F)F` (stereo not shown) [Compound 2, 5-Methyl-2-trifluoromethyl-furan-3-carboxylic acid (1-methylcarbamoyl-2-phenyl-ethyl)-amide], the “Shoot DW” value reads like this: (7.5 g/ha foliar spray) 3.8 g; (15 g/ha foliar spray) 3.7 g. The “Shoot FW” value is, setting by setting: (7.5 g/ha foliar spray) 40.9 g; (15 g/ha foliar spray) 38.7 g. Moreover, the activity at 7.5 g/ha came to 135% under setting [1] and 134% under setting [2]. For the same compound, the activity at 15 g/ha under setting [3] turned out to be 131% and the activity at 15 g/ha under setting [4] stood at 126%.
For `CNC(=O)C(Cc1ccccc1)NC(=O)c1cn(C)nc1C(F)(F)F` (stereo not shown) [Compound 3, 1-Methyl-3-trifluoromethyl-1H-pyrazole-4-carboxylic acid (1-methylcarbamoyl-2-phenyl-ethyl)-amide], the “Shoot DW” value runs as follows: (7.5 g/ha foliar spray) 3.8 g; (15 g/ha foliar spray) 3.8 g. Further, the “Shoot FW” value (7.5 g/ha foliar spray) was found to be 39.4 g and the “Shoot FW” value (15 g/ha foliar spray) was 39.1 g. For the same compound, the activity at 7.5 g/ha amounted to 135% under setting [1] and 129% under setting [2]. The activity at 15 g/ha under setting [3] was determined as 135% and the activity at 15 g/ha under setting [4] is 128%.
For the compound `CNC(=O)OCC(NC(=O)c1cn(C)nc1C(F)(F)F)C(=O)NC` (stereo not shown) [Compound 4, Methyl-carbamic acid-2-methylcarbamoyl-2-[(1-methyl-3-trifluoromethyl-1H-pyrazole-4-carbonyl)-amino]-ethyl ester], the “Shoot DW” value was determined as 3.7 g (7.5 g/ha foliar spray) and 3.8 g (15 g/ha foliar spray). Further, the “Shoot FW” value (7.5 g/ha foliar spray) turned out to be 37.7 g and the “Shoot FW” value (15 g/ha foliar spray) is recorded as 40.1 g. Further, the activity at 7.5 g/ha worked out at 131% under setting [1] and 123% under setting [2]. In addition, the activity at 15 g/ha stood at 137% under setting [3] and 131% under setting [4].
Consider `CNC(=O)OC(C1CCOCC1)C(NC(=O)c1cn(C)nc1C(F)(F)F)C(=O)NC` (stereo not shown) [Compound 5, Methyl-carbamic acid 2-methylcarbamoyl-2-[(1-methyl-3-trifluoromethyl-1H-pyrazole-4-carbonyl)-amino]-1-(tetrahydro-pyran-4-yl)-ethyl ester], for which the “Shoot DW” value stood at 3.8 g (7.5 g/ha foliar spray) and 3.7 g (15 g/ha foliar spray). The “Shoot FW” value is given as 41.2 g (7.5 g/ha foliar spray) and 39.6 g (15 g/ha foliar spray). The activity at 7.5 g/ha under setting [1] worked out at 135% and the activity at 7.5 g/ha under setting [2] amounted to 135%. Moreover, the activity at 15 g/ha was 133% under setting [3] and 129% under setting [4].
Consider `CNC(=O)OC(C)(C)C(NC(=O)c1cn(C)nc1C(F)(F)F)C(=O)NC` (stereo not shown) [Compound 6, Methyl-carbamic acid 1,1-dimethyl-2-methylcarbamoyl-2-[(1-methyl-3-trifluoromethyl-1H-pyrazole-4-carbonyl)-amino]-ethyl ester], for which the “Shoot DW” value is given as 3.7 g (7.5 g/ha foliar spray) and 3.6 g (15 g/ha foliar spray). Moreover, the “Shoot FW” value (7.5 g/ha foliar spray) is 39.2 g and the “Shoot FW” value (15 g/ha foliar spray) was determined as 38.2 g. In addition, the activity at 7.5 g/ha was 132% under setting [1] and 128% under setting [2]. Besides, the activity at 15 g/ha came to 130% under setting [3] and 125% under setting [4].
`CNC(=O)C(NC(=O)c1cn(C)nc1C(F)(F)F)C(O)(COC)COC` (stereo not shown) [Compound 7, 1-Methyl-3-trifluoromethyl-1H-pyrazole-4-carboxylic acid (2-hydroxy-3-methoxy-2-methoxymethyl-1-methylcarbamoyl-propyl)-amide]: the “Shoot DW” value runs as follows: (7.5 g/ha foliar spray) 3.7 g; (15 g/ha foliar spray) 3.7 g. The “Shoot FW” value (7.5 g/ha foliar spray) was determined as 38.7 g and the “Shoot FW” value (15 g/ha foliar spray) is on record as 40.2 g. Besides, the activity at 7.5 g/ha is, setting by setting: under setting [1], 131%; under setting [2], 126%. Moreover, the activity at 15 g/ha runs as follows: under setting [3], 133%; under setting [4], 131%.
For the compound `CNC(=O)OC(COC)(COC)C(NC(=O)c1cn(C)nc1C(F)(F)F)C(=O)NC` (stereo not shown) [Compound 8, Methyl-carbamic acid 1,1-bis-methoxymethyl-2-methylcarbamoyl-2-[(1-methyl-3-trifluoromethyl-1H-pyrazole-4-carbonyl)-amino]-ethyl ester], the “Shoot DW” value by setting is: (7.5 g/ha foliar spray) 3.9 g; (15 g/ha foliar spray) 3.7 g. Moreover, the “Shoot FW” value is, setting by setting: (7.5 g/ha foliar spray) 39.6 g; (15 g/ha foliar spray) 39.4 g. Further, the activity at 7.5 g/ha is, setting by setting: under setting [1], 138%; under setting [2], 129%. For the same compound, the activity at 15 g/ha under setting [3] worked out at 131% and the activity at 15 g/ha under setting [4] came out at 121%.
For `C/C=C/C(C)(OC(=O)NC)C(NC(=O)c1cn(C)nc1C(F)(F)F)C(=O)NC` (stereo not shown) [Compound 9, Methyl-carbamic acid (E)-1-methyl-1-{methylcarbamoyl-[(1-methyl-3-trifluoromethyl-1H-pyrazole-4-carbonyl)-amino]-methyl}-but-2-enyl ester], the “Shoot DW” value turned out to be 3.6 g (7.5 g/ha foliar spray) and 3.8 g (15 g/ha foliar spray). The “Shoot FW” value by setting is: (7.5 g/ha foliar spray) 38.8 g; (15 g/ha foliar spray) 39.4 g. Also, the activity at 7.5 g/ha amounted to 129% under setting [1] and 127% under setting [2]. For the same compound, the activity at 15 g/ha by setting is: under setting [3], 135%; under setting [4], 129%.
